“And” between values parts separate entries of the source, which are not always exact repeats. Identical values can stand only once. Numbers after ± are expanded uncertainties.
How the values were obtained:
[1] = 101.33 kPa, Liquid, Vibrating tube method
[2] = wn = mass fraction of the nth substance listed; conditions: Liquid, Vibrating tube method, w2 = 0.001

SMILES	mass density ([1]; 293.15 K)	mass density ([1]; 298.15 K)	mass density ([1]; 303.15 K)	mass density ([1]; 313.15 K)	mass density ([1]; 323.15 K)	mass density ([1]; 333.15 K)	mass density ([1]; 343.15 K)	mass density ([1]; 353.15 K) [kg/m3]	mass density ([1]; 363.15 K) [kg/m3]	other results
Cn1cc[n+](C)c1.N#C[S-] [1,3-dimethylimidazolium thiocyanate]	1160.7 ± 0.5 kg/m3	1157.4 ± 0.5 kg/m3	1154.2 ± 0.5 kg/m3	1147.8 ± 0.5 kg/m3	1141.4 ± 0.4 kg/m3	1135.2 ± 0.4 kg/m3	1129.1 ± 0.4 kg/m3	1123.1 ± 0.4	1117.2 ± 0.4	
CCCC[n+]1ccn(C)c1.O=S(=O)([N-]S(=O)(=O)C(F)(F)F)C(F)(F)F + O										mass density ([2]; 293.15 K, 101 kPa): 1439.9 ± 5.2 kg/m3; mass density ([2]; 298.15 K, 101 kPa): 1435.1 ± 5.2 kg/m3; mass density ([2]; 303.15 K, 101 kPa): 1430.3 ± 5.1 kg/m3; mass density ([2]; 308.15 K, 101 kPa): 1425.5 ± 5.1 kg/m3; mass density ([2]; 313.15 K, 101 kPa): 1420.7 ± 5.1 kg/m3; mass density ([2]; 318.15 K, 101 kPa): 1416 ± 5 kg/m3; mass density ([2]; 323.15 K, 101 kPa): 1411.2 ± 5 kg/m3; mass density ([2]; 328.15 K, 101 kPa): 1406.5 ± 5 kg/m3; mass density ([2]; 333.15 K, 101 kPa): 1401.7 ± 4.9 kg/m3; mass density ([2]; 338.15 K, 101 kPa): 1396.9 ± 4.9 kg/m3; mass density ([2]; 343.15 K, 101 kPa): 1392.2 ± 4.9 kg/m3
N#CC[n+]1ccccc1.O=S(=O)([N-]S(=O)(=O)C(F)(F)F)C(F)(F)F	1636.2 ± 6.8 kg/m3	1631.2 ± 6.7 kg/m3	1626.2 ± 6.7 kg/m3	1616.2 ± 6.6 kg/m3	1606.4 ± 6.5 kg/m3	1596.8 ± 6.4 kg/m3	1587.3 ± 6.4 kg/m3	1577.7 ± 6.3	1568.3 ± 6.2	
CCCC[n+]1ccn(C)c1.O=S(=O)([N-]S(=O)(=O)C(F)(F)F)C(F)(F)F	1442.7 ± 5.2 kg/m3 and 1440.2 ± 5.2 kg/m3	1437.9 ± 5.2 kg/m3	1433.1 ± 5.2 kg/m3 and 1430.7 ± 5.2 kg/m3	1423.5 ± 5.1 kg/m3 and 1421.2 ± 5.1 kg/m3	1414 ± 5 kg/m3 and 1411.8 ± 5 kg/m3	1404.5 ± 5 kg/m3 and 1402.4 ± 5 kg/m3	1395 ± 4.9 kg/m3 and 1393 ± 4.9 kg/m3	1383.6 ± 4.8	1374.3 ± 4.8	mass density ([1]; 308.15 K): 1428.3 ± 5.1 kg/m3; mass density ([1]; 318.15 K): 1418.8 ± 5.1 kg/m3; mass density ([1]; 328.15 K): 1409.3 ± 5 kg/m3; mass density ([1]; 338.15 K): 1399.7 ± 4.9 kg/m3
CCCCCCCCn1cc[n+](C)c1.O=S(=O)([N-]S(=O)(=O)C(F)(F)F)C(F)(F)F	1324.5 ± 4.4 kg/m3		1315.8 ± 4.3 kg/m3	1307 ± 4.3 kg/m3	1298.2 ± 4.2 kg/m3	1289.5 ± 4.2 kg/m3	1280.8 ± 4.1 kg/m3	1272.1 ± 4.1	1263.5 ± 4	
CCCCn1cc[n+](C)c1.F[P-](F)(F)(F)(F)F [1-butyl-3-methylimidazolium hexafluorophosphate] + O										mass density ([2]; 293.15 K, 101 kPa): 1367.5 ± 0.2 kg/m3; mass density ([2]; 298.15 K, 101 kPa): 1363.4 ± 0.2 kg/m3; mass density ([2]; 303.15 K, 101 kPa): 1359.2 ± 0.2 kg/m3; mass density ([2]; 308.15 K, 101 kPa): 1355.2 ± 0.2 kg/m3; mass density ([2]; 313.15 K, 101 kPa): 1351 ± 0.2 kg/m3; mass density ([2]; 318.15 K, 101 kPa): 1346.8 ± 0.2 kg/m3; mass density ([2]; 323.15 K, 101 kPa): 1342.4 ± 0.2 kg/m3; mass density ([2]; 328.15 K, 101 kPa): 1338.5 ± 0.2 kg/m3; mass density ([2]; 333.15 K, 101 kPa): 1334.4 ± 0.2 kg/m3; mass density ([2]; 338.15 K, 101 kPa): 1330.3 ± 0.2 kg/m3; mass density ([2]; 343.15 K, 101 kPa): 1326.2 ± 0.2 kg/m3
CCCCCCCCCCn1cc[n+](C)c1.O=S(=O)([N-]S(=O)(=O)C(F)(F)F)C(F)(F)F	1282.4 ± 4.1 kg/m3		1273.8 ± 4.1 kg/m3	1265.3 ± 4 kg/m3	1256.8 ± 4 kg/m3	1248.3 ± 3.9 kg/m3	1239.9 ± 3.8 kg/m3	1231.4 ± 3.8	1223.1 ± 3.7	
CCCCCC[n+]1ccn(C)c1.O=S(=O)([N-]S(=O)(=O)C(F)(F)F)C(F)(F)F	1375.1 ± 4.8 kg/m3		1366 ± 4.7 kg/m3	1356.9 ± 4.6 kg/m3	1347.9 ± 4.6 kg/m3	1338.8 ± 4.5 kg/m3	1329.8 ± 4.4 kg/m3	1320.9 ± 4.4	1311.9 ± 4.3	
CCOS(=O)(=O)[O-].CCn1cc[n+](C)c1 [1-ethyl-3-methylimidazolium ethyl sulfate]	1242.3 ± 3.9 kg/m3		1235.6 ± 3.8 kg/m3	1228.9 ± 3.8 kg/m3	1222.1 ± 3.7 kg/m3	1215.5 ± 3.7 kg/m3	1208.8 ± 3.6 kg/m3	1202.2 ± 3.6	1195.6 ± 3.6	
CCn1cc[n+](C)c1.O=S(=O)([N-]S(=O)(=O)C(F)(F)F)C(F)(F)F	1522.9 ± 5.9 kg/m3 and 1523.4 ± 5.9 kg/m3	1517.9 ± 5.8 kg/m3	1512.9 ± 5.8 kg/m3 and 1513.4 ± 5.8 kg/m3	1502.9 ± 5.7 kg/m3 and 1503.4 ± 5.7 kg/m3	1492.9 ± 5.6 kg/m3 and 1493.4 ± 5.6 kg/m3	1483 ± 5.5 kg/m3 and 1483.5 ± 5.6 kg/m3	1473 ± 5.5 kg/m3 and 1473.7 ± 5.5 kg/m3	1463.8 ± 5.4	1454 ± 5.3	mass density ([1]; 308.15 K): 1507.9 ± 5.7 kg/m3; mass density ([1]; 318.15 K): 1497.9 ± 5.7 kg/m3; mass density ([1]; 328.15 K): 1488 ± 5.6 kg/m3; mass density ([1]; 338.15 K): 1478 ± 5.5 kg/m3
CCCCn1cc[n+](C)c1.O=S(=O)([O-])C(F)(F)F [1-butyl-3-methylimidazolium trifluoromethanesulfonate]	1301.3 ± 4.2 kg/m3		1293.4 ± 4.2 kg/m3	1285.6 ± 4.1 kg/m3	1277.7 ± 4.1 kg/m3	1269.9 ± 4 kg/m3	1262.3 ± 4 kg/m3	1254.5 ± 3.9	1246.9 ± 3.9	
CCCCCC[n+]1ccn(C)c1.FC(F)(F)C(F)(F)[P-](F)(F)(F)(C(F)(F)C(F)(F)F)C(F)(F)C(F)(F)F	1557.1 ± 2.9 kg/m3	1551.8 ± 2.8 kg/m3	1546.4 ± 2.8 kg/m3	1535.7 ± 2.8 kg/m3	1525 ± 2.7 kg/m3	1514.3 ± 2.7 kg/m3	1503.6 ± 2.7 kg/m3	1493 ± 2.6	1482.4 ± 2.6	
CCCCn1cc[n+](C)c1.F[P-](F)(F)(F)(F)F [1-butyl-3-methylimidazolium hexafluorophosphate]	1369.8 ± 0.2 kg/m3 and 1368.1 ± 0.2 kg/m3	1365.7 ± 0.2 kg/m3 and 1364.1 ± 0.2 kg/m3	1361.6 ± 0.2 kg/m3 and 1360 ± 0.2 kg/m3	1353.3 ± 0.2 kg/m3 and 1351.8 ± 0.2 kg/m3	1345.1 ± 0.2 kg/m3 and 1343.5 ± 0.2 kg/m3	1336.9 ± 0.2 kg/m3 and 1335.2 ± 0.2 kg/m3	1328.6 ± 0.2 kg/m3 and 1327 ± 0.2 kg/m3			mass density ([1]; 308.15 K): 1357.4 ± 0.2 kg/m3 and 1355.7 ± 0.2 kg/m3; mass density ([1]; 318.15 K): 1349.2 ± 0.2 kg/m3 and 1347.5 ± 0.2 kg/m3; mass density ([1]; 328.15 K): 1341 ± 0.2 kg/m3 and 1339.4 ± 0.2 kg/m3; mass density ([1]; 338.15 K): 1332.7 ± 0.2 kg/m3 and 1331.1 ± 0.2 kg/m3
CCCCCCCCCCn1cc[n+](C)c1.O=S(=O)([N-]S(=O)(=O)C(F)(F)F)C(F)(F)F + O										mass density ([2]; 298.15 K, 100 kPa): 1275.5 ± 4.1 kg/m3
C[N+]1(CC#N)CCCC1.O=S(=O)([N-]S(=O)(=O)C(F)(F)F)C(F)(F)F	1545.4 ± 6 kg/m3	1537.8 ± 6 kg/m3	1533.1 ± 5.9 kg/m3	1523.8 ± 5.9 kg/m3	1514.5 ± 5.8 kg/m3	1505.5 ± 5.7 kg/m3	1496.7 ± 5.7 kg/m3	1487.8 ± 5.6	1479 ± 5.5	
CCCCn1cc[n+](C)c1.F[B-](F)(F)F [1-butyl-3-methylimidazolium tetrafluoroborate] + O										mass density ([2]; 298.15 K, 100 kPa): 1197.5 ± 1.6 kg/m3
CCCC[N+]1(C)CCCC1.FC(F)(F)C(F)(F)[P-](F)(F)(F)(C(F)(F)C(F)(F)F)C(F)(F)C(F)(F)F	1588.1 ± 3 kg/m3		1577.3 ± 2.9 kg/m3	1566.8 ± 2.9 kg/m3	1556.4 ± 2.9 kg/m3	1545.9 ± 2.8 kg/m3	1535.5 ± 2.8 kg/m3	1525.1 ± 2.7	1514.7 ± 2.7	
CCCCCCCCCCCCCC[P+](CCCCCC)(CCCCCC)CCCCCC.O=S(=O)([N-]S(=O)(=O)C(F)(F)F)C(F)(F)F	1067.6 ± 2.8 kg/m3		1060.3 ± 2.8 kg/m3	1052.9 ± 2.7 kg/m3	1045.7 ± 2.7 kg/m3	1038.6 ± 2.6 kg/m3	1031.5 ± 2.6 kg/m3	1024.4 ± 2.6	1017.3 ± 2.5	
CCCCn1cc[n+](C)c1.F[B-](F)(F)F [1-butyl-3-methylimidazolium tetrafluoroborate]	1203.8 ± 1.7 kg/m3 and 1204.9 ± 1.7 kg/m3	1200 ± 1.6 kg/m3 and 1201.1 ± 1.6 kg/m3	1196.2 ± 1.6 kg/m3 and 1197.4 ± 1.6 kg/m3	1188.9 ± 1.6 kg/m3 and 1190.1 ± 1.6 kg/m3	1181.3 ± 1.6 kg/m3 and 1182.7 ± 1.6 kg/m3	1174.1 ± 1.6 kg/m3 and 1175.3 ± 1.6 kg/m3	1166.9 ± 1.5 kg/m3 and 1168 ± 1.5 kg/m3			mass density ([1]; 308.15 K): 1192.4 ± 1.6 kg/m3 and 1193.8 ± 1.6 kg/m3; mass density ([1]; 318.15 K): 1185.4 ± 1.6 kg/m3 and 1186.5 ± 1.6 kg/m3; mass density ([1]; 328.15 K): 1177.9 ± 1.6 kg/m3 and 1179 ± 1.6 kg/m3; mass density ([1]; 338.15 K): 1170.5 ± 1.6 kg/m3 and 1171.7 ± 1.6 kg/m3
CCCCCCCCCCCCCC[P+](CCCCCC)(CCCCCC)CCCCCC.O=S(=O)([N-]S(=O)(=O)C(F)(F)F)C(F)(F)F + O										mass density ([2]; 298.15 K, 100 kPa): 1060.1 ± 2.8 kg/m3
CCn1cc[n+](C)c1.O=S(=O)([N-]S(=O)(=O)C(F)(F)F)C(F)(F)F + O										mass density ([2]; 293.15 K, 101 kPa): 1520 ± 5.8 kg/m3; mass density ([2]; 298.15 K, 101 kPa): 1515 ± 5.8 kg/m3; mass density ([2]; 303.15 K, 101 kPa): 1510 ± 5.7 kg/m3; mass density ([2]; 308.15 K, 101 kPa): 1504.9 ± 5.7 kg/m3; mass density ([2]; 313.15 K, 101 kPa): 1499.8 ± 5.7 kg/m3; mass density ([2]; 318.15 K, 101 kPa): 1494.8 ± 5.6 kg/m3; mass density ([2]; 323.15 K, 101 kPa): 1489.8 ± 5.6 kg/m3; mass density ([2]; 328.15 K, 101 kPa): 1484.8 ± 5.5 kg/m3; mass density ([2]; 333.15 K, 101 kPa): 1479.7 ± 5.5 kg/m3; mass density ([2]; 338.15 K, 101 kPa): 1474.7 ± 5.5 kg/m3; mass density ([2]; 343.15 K, 101 kPa): 1469.7 ± 5.4 kg/m3

Reference: the NIST ThermoML archive (doi:10.1021/je700707y)
